Source: patent US7601850B2, “Phenyl-thiophene type vitamin D receptor modulators” (Eli Lilly and Company, priority 2002, dated 2009)
Like-named read-outs stand apart in the source and are kept apart here.

Key:
[1] = system: rat osteocalcin promoter; assay: OCN (osteocalcin) promoter assay in RG-15 (ROS 17/2.8) cells; assay type: cell-based
Procedure, shortened: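 Rat osteoblast-like RG-15 (ROS 17/2.8) cells stably carry the rat osteocalcin promoter fused to luciferase. They were treated with compounds for 48 h in medium with 2% FBS and 0.01% DMSO. EC50 was derived from luciferase activity in cell lysates.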

[2] = Mouse hypercalcemia assay (six day, serum ionized calcium); assay type: in vivo
Description: 5. The Mouse Hypercalcemia test is described in the “Assay” section of the Description, infra.
4. The Mouse Hypercalcemia Assay
The Mouse Hypercalcemia Assay is a six day hypercalcemia test for toxicity and selectivity. Acceptable test results are levels greater than 300 μg/kg/day. Preferred assay results are levels greater than 1000 μg/kg/day.
(4) Materials and Method for The Mouse Hypercalcemia Assay:
Weanling, virus-antibody-free, five to six weeks old female DBF mice (Harlan, Indianapolis, Ind.) are used for all the studies. Animals are allowed to acclimate to local vivarium conditions for 2 days. […] The animals then are divided into groups with 4-5 mice per group. Different doses of test compounds prepared in 10% Ethanol and 90% sesame oil are administered to mice orally via gavage for 6 days. 1α-25(OH)2D3 0.5 μg/kg/d was also given to one group of mice as the positive control. Serum ionized calcium is evaluated at 6 hours after the last dosing under isoflurane anesthesia by Ciba-Corning Ca++/PH Analyzer, (Model 634, Chiron Diagnostics Corp., East Walpole, Mass.). Raw data of group differences is assessed by analysis of variance (ANOVA) using Fisher's protected least significant difference (PLSD) where the significance level was P<0.05.

[3] = system: KERtr cells; assay: Keratinocyte proliferation assay (BrdU incorporation); assay type: cell-based; conditions: KERtr human skin keratinocytes, 72 hr treatment, read-out: Kera. Prolif. IC50
Description: 6. The keratinocyte proliferation assay is described in the “Assay” section of the Description, infra.
5. The Keratinocyte Proliferation Assay
This Assay is indicative for the treatment of psoriasis.
(5) The Keratinocyte Proliferation Assay:
KERtr cells (Human skin keratinocyte transformed with a retrovirus vector, obtained from ATCC) were plated in 96-well flat-bottomed plates (3000 cells/well) in 100 µl keratinocyte serum free medium supplemented with bovine pituitary extract in the absence of EGF (Life Technologies, Rockville, Md.) and incubated at 37° C. for two days. The cells were treated with various concentrations of VDR ligands (ten-fold serial dilution from 10,000 nM to 0.1 nM in triplicate), dissolved in 100 µl keratinocyte serum free medium supplemented with bovine pituitary extract in the absence of EGF and incubated at 37° C. for 72 hr. […] Potency values (IC50) values were determined as the concentration (nM) of compound that elicited a half-maximal response.

[4] = Homo sapiens, Keratinocyte, 72 h

| SMILES | EC50 [1] [nM] | Mouse Hypercal [2] [µg/kg/day] | EC50 ([1]; Rattus norvegicus) [nM] | further results |
| --- | --- | --- | --- | --- |
| CCC(CC)(c1ccc(OCC(=O)O)c(C)c1)c1cc(C)c(CCC(O)C(C)(C)C)s1 (single isomer, unassigned) [Ex. 33A, 3′-[5-(3-hydroxy-4,4-dimethylpentyl)-4-methylthiophen-2-yl]-3′-[4-(carboxylmethoxy)-3-methylphenyl]pentane] | 43.5 | >9000 | – | – |
| CCC(CC)(c1ccc(OCC(=O)O)c(C)c1)c1cc(C)c(CCC(O)C(C)(C)C)s1 (single isomer, unassigned) [Ex. 33B, 3′-[5-(3-hydroxy-4,4-dimethylpentyl)-4-methylthiophen-2-yl]-3′-[4-(carboxylmethoxy)-3-methylphenyl]pentane] | 7.55 | 1000 | – | IC50 [3, 4]: 22.5 nM |
| CCC(CC)(c1ccc(OCC(=O)Nc2nnn[nH]2)c(C)c1)c1cc(C)c(CCC(O)C(C)(C)C)s1 (single isomer, unassigned) [Ex. 34, 3′-[5-(3-hydroxy-4,4-dimethylpentyl)-4-methylthiophen-2-yl]-3-[4-(tetrazol-5-yl-aminocarbonylmethoxy)-3-methylphenyl]pentane] | 96.8 | 3000 | – | – |
| CCC(CC)(c1ccc(OCC(=O)Nc2nnn[nH]2)c(C)c1)c1cc(C)c(CCC(O)C(C)(C)C)s1 (single isomer, unassigned) [Ex. 35, 3′-[5-(3-hydroxy-4,4-dimethylpentyl)-4-methylthiophen-2-yl]-3′-[4-(tetrazol-5-yl-aminocarbonylmethoxy)-3-methylphenyl]pentane] | 21.1 | 3000 | – | IC50 [3, 4]: 474 nM |
| CCC(CC)(c1ccc(OCC(O)C(C)(C)C)c(C)c1)c1cc(C)c(C(=O)Nc2nnn[nH]2)s1 (single isomer, unassigned) [Ex. 36, 3′-[4-(2-hydroxy-3,3-dimethylbutoxy)-3-methylphenyl]-3′-[5-(tetrazol-5-yl-aminocarbonyl)-4-methylthiophen-2-yl]pentane] | 67.9 | 2000 | – | – |
| CCC(CC)(c1ccc(OCC(O)C(C)(C)C)c(C)c1)c1cc(C)c(C(=O)N(C)OC)s1 (single isomer, unassigned) [Ex. 43, 5-{1-Ethyl-1-[4-(2-hydroxy-3,3-dimethyl-butyoxy)-3-methyl-phenyl]-propyl}-3methyl-thiophene-2-carboxylic acid methoxy-methyl-amide] | – | 1000 | 19.7 | – |
| CCC(CC)(c1ccc(OCC(O)C(C)(C)C)c(C)c1)c1cc(C)c(C(=O)N(C)OC)s1 (single isomer, unassigned) [Ex. 44, 5-{1-Ethyl-1-[4-(2-hydroxy-3,3-dimethyl-butyoxy)-3-methyl-phenyl]-propyl}-3methyl-thiophene-2-carboxylic acid methoxy-methyl-amide] | 30.4 | 1000 | – | – |
| CCC(CC)(c1ccc(OCC(O)C(C)(C)C)c(C)c1)c1cc(C)c(C(=O)NC(C)(C)C(=O)O)s1 (single isomer, unassigned) [Ex. 71, 2-[(5-{1-Ethyl-1-[4-(2-hydroxy-3,3-dimethyl-butoxy)-3-methyl-phenyl]-propyl}-3-methyl-thiophene-2-carbonyl)-amino]-2-methyl-propionic acid] | – | <300 | 3.5 | IC50 [3]: 29 nM |
| CCC(CC)(c1ccc(OCC(O)C(C)(C)C)c(C)c1)c1cc(C)c(C(=O)NC(C)(C)C(=O)O)s1 (single isomer, unassigned) [Ex. 77, 2-[(5-{1-Ethyl-1-[4-(2-hydroxy-3,3-dimethyl-butoxy)-3-methyl-phenyl]-propyl}-3-methyl-thiophene-2-carbonyl)-amino]-2-methyl-propionic acid] | 2 | 300 | – | IC50 [3]: 194 nM |
| CCCc1cc(C(CC)(CC)c2ccc(C(=O)O)s2)ccc1OCC(O)C(C)(C)C (single isomer, unassigned) [Ex. 94, 3′-[4-(2-hydroxy-3,3-dimethylbutoxy)-3-n-propylphenyl]-3′-[5-carboxy-thiophen-2-yl]pentane] | 4.05 | 1000 | – | – |
| CCC(CC)(c1ccc(OCC(O)C(C)(C)C)c(C(C)C)c1)c1ccc(C(=O)O)s1 (single isomer, unassigned) [Ex. 97, 3′-[4-(2-hydroxy-3,3-dimethylbutoxy)-3-i-propylphenyl]-3′-[5-carboxy-thiophen-2-yl]pentane] | – | 3000 | 22.4 | – |
| CCC(CC)(c1ccc(OCC(O)C(C)(C)C)c(C(C)C)c1)c1ccc(C(=O)O)s1 (single isomer, unassigned) [Ex. 98, 3′-[4-(2-hydroxy-3,3-dimethylbutoxy)-3-i-propylphenyl]-3′-[5-carboxy-thiophen-2-yl]pentane] | 15.8 | 4000 | – | – |
| CCC(CC)(c1ccc(OCC(C)(O)C(C)(C)C)c(C)c1)c1ccc(C(=O)O)s1 (single isomer, unassigned) [Ex. 104, 3′-[4-(2-hydroxy-2,3,3-trimethylbutoxy)-3-methylphenyl]-3′-[5-carboxy-thiophen-2-yl]pentane] | 90.9 | 1000 | – | – |
| CCCc1cc(C(CC)(CC)c2ccc(C(=O)N[C@@H](C)C(=O)O)s2)ccc1OCC(C)(O)C(C)(C)C (single isomer, unassigned) [Ex. 114, d-3′-[4-(2-hydroxy-2,3,3-trimethylbutoxy)-3-n-propylphenyl]-3′-[5-(carboxy-1-ethylamino)carbonyl-thiophen-2-yl]pentane] | – | <300 | 0.28 | – |
| CCC(CC)(c1ccc(OCC(C)(O)C(C)(C)C)c(OC)c1)c1ccc(C(=O)NC(C)C(=O)O)s1 (single isomer, unassigned) [Ex. 116, d-3′-[4-(2-hydroxy-2,3,3-trimethylbutoxy)-3-methoxyphenyl]-3′-[5-(carboxy-1-ethylamino)carbonyl-thiophen-2-yl]pentane] | – | >3000 | 16.9 | – |
| CCC(CC)(c1ccc(OCC(O)CO)c(C)c1)c1ccc(OCC(O)C(C)(C)C)c(C)c1 (stereo not drawn) [BB, 3-(4-{1-Ethyl-1-[4-(2-hydroxy-3,3-dimethyl-butoxy)-3-methyl-phenyl]-10 propyl}-2-methyl-phenoxy)-propane-1,2-diol, reference compound] | – | – | – | Mouse Hypercal μg/Kg/d [2]: >=20 μg/Kg/d |
| CCC(CC)(c1ccc(OCC(=O)C(C)(C)C)c(C)c1)c1ccc(OC[C@H](O)C(C)(C)C)c(C)c1 [EE, reference compound] | – | 1000 | – | – |
| CCC(CC)(c1ccc(OCC(=O)C(C)(C)C)c(C)c1)c1cc(C)c(C(=O)N(C)OC)s1 [Ex. 45, 5-{1-[4-(3,3-dimethyl-2-oxo-butyoxy)-3-methyl-phenyl]-1-ethyl-propyl}-3methyl-thiophene-2-carboxylic acid methoxy-methyl-amide] | – | >1500 | 41 | – |
| CCC(CC)(c1ccc(OCC(=O)C(C)(C)C)c(C)c1)c1cc(C)c(C(=O)NCC(=O)O)s1 [Ex. 50] | – | >3000 | 21.6 | – |
| CCC(CC)(c1ccc(OCC(O)C(C)(C)C)c(C(C)C)c1)c1ccc(C(=O)O)s1 (stereo not drawn) [Ex. 92, 3′-[4-(2-Hydroxy-3,3-dimethylbutoxy)-3-(1-methylethyl)phenyl]-3′-[5-carboxy-thiophen-2-yl]pentane] | – | 1000 | 75.3 | – |
| CCc1cc(C(CC)(CC)c2ccc(C(=O)O)s2)ccc1OCC(O)C(C)(C)C (stereo not drawn) [Ex. 99, 3′-[4-(2-hydroxy-3,3-dimethylbutoxy)-3-ethylphenyl]-3′-[5-carboxy-thiophen-2-yl]pentane] | – | >1000 | 38.1 | – |
| CCC(CC)(c1ccc(OCC(C)(O)C(C)(C)C)c(C)c1)c1ccc(C(=O)O)s1 (stereo not drawn) [Ex. 103, 3′-[4-(2-hydroxy-2,3,3-trimethylbutoxy)-3-methylphenyl]-3′-[5-carboxy-thiophen-2-yl]pentane] | – | 3000 | 102 | – |
| CCC(CC)(c1ccc(CCC(O)C(C)(C)C)c(C)c1)c1cc(C)c(S(=O)(=O)NCC(=O)O)s1 (stereo not drawn) [Ex. 179, (5-{1-Ethyl-1-[4-(3-hydroxy-4,4-dimethyl-pentyl)-3-methyl-phenyl]-propyl}-3-methyl-thiophene-2-sulfonylamino)-acetic acid] | – | – | 27.9 | IC50 [3, 4]: 221 nM |
